In experiment [1] the test system is Candida albicans. Description: Antifungal activity against Monilia albicans ATCC 10231 measured after 24 hrs by broth macrodilution method. It counts as functional. Particulars: ATCC 10231, 24 h.
In experiment [2] the test system is Trichophyton rubrum. Put plainly: Antifungal activity against Trichophyton rubrum ATCC 4438 measured after 4 to 7 days by broth macrodilution method. It counts as functional.
Experiment [3] has as its system Trichophyton mentagrophytes. Put plainly: Antifungal activity against Trichophyton mentagrophytes ATCC 4439 by broth macrodilution method. It counts as functional.
Experiment [4] deals with HepG2. Description: Cytotoxicity against human HepG2 cells after 72 hrs by CCK8 assay. Particulars: HepG2, 72 h. It counts as functional, cell-based. In general terms: Tetrazolium dyes change colour on reduction, which living cells bring about.
Experiment [5] deals with A549. Description: Cytotoxicity against human A549 cells after 72 hrs by CCK8 assay. It counts as functional, cell-based. Conditions: A549, 72 h.
The subject of experiment [6] is THP-1. Description: Cytotoxicity against human THP1 cells after 72 hrs by CCK8 assay. Particulars: THP-1, 72 h. It counts as functional, cell-based.
The subject of experiment [7] is THP-1. Put plainly: Immunosuppressive activity in PMA-differentiated human THP1 cells assessed as inhibition of LPS-stimulated IL-6 production by flow cytometry. The class given is functional, cell-based. (In general: Flow cytometry measures light scatter and fluorescence of single cells or particles in a stream.)

Where only a bound is given, the exact number is not on record here.

As usually defined, the MIC is the least concentration at which growth counts as inhibited. A word on the IC50: it is the concentration needed to halve the response being measured.

In the case of `CN1[C@H](CCCCCC(=O)O)C[C@H](O)[C@@H]1Cc1ccccc1`, the MIC in experiment [1], in experiment [2] and in experiment [3] was over 50 µg/mL each time. Also, the IC50 was over 20 µM in experiment [4], over 20 µM in experiment [5], over 20 µM in experiment [6] and 8.2 µM in experiment [7].
In the case of `CN1[C@H](CCCCCCC(=O)O)C[C@H](O)[C@@H]1Cc1ccccc1`, the MIC in experiment [1], in experiment [2] and in experiment [3] was over 50 µg/mL each time. The IC50 in experiment [4] is over 20 µM; in experiment [5], over 20 µM; in experiment [6], over 20 µM; in experiment [7], 9.9 µM.
Turning to `CC(C)=CCC/C(C)=C/Cc1cc(-c2coc3cc(O)ccc3c2=O)ccc1O`, in experiment [7], the IC50 turned out to be 0.67 µM.
For `CN1[C@H](CCC(=O)O)C[C@H](O)[C@@H]1Cc1ccccc1`, the MIC in experiment [1], in experiment [2] and in experiment [3] was over 50 µg/mL throughout. For the same molecule, the IC50 in experiment [4] is over 20 µM; in experiment [5], over 20 µM; in experiment [6], over 20 µM; in experiment [7], 21 µM.
In the case of `CN1[C@H](CCCCC(=O)O)C[C@H](O)[C@@H]1Cc1ccccc1`, the MIC in experiment [1], in experiment [2] and in experiment [3] was over 50 µg/mL each time. The IC50 was over 20 µM in experiment [4], over 20 µM in experiment [5], over 20 µM in experiment [6] and 22 µM in experiment [7].
Consider `CC[C@@H](O)CCCCCC[C@@H]1C[C@H](O)[C@H](Cc2ccccc2)N1C`, for which the MIC in experiment [1], in experiment [2] and in experiment [3] was over 50 µg/mL throughout. Besides, the IC50 in experiment [4] is over 20 µM; in experiment [5], over 20 µM; in experiment [6], over 20 µM; in experiment [7], 0.19 µM.
Take `C[C@@H](O)CCCCCCC[C@@H]1C[C@H](O)[C@H](Cc2ccccc2)N1C`: the MIC in experiment [1], in experiment [2] and in experiment [3] was over 50 µg/mL throughout. The IC50 in experiment [4] was over 20 µM; in experiment [5], over 20 µM; in experiment [6], over 20 µM; in experiment [7] it was 14 µM.
With `CN1[C@H](CCCCCCCCC(=O)O)C[C@H](O)[C@@H]1Cc1ccccc1`, the MIC in experiment [1], in experiment [2] and in experiment [3] was over 50 µg/mL throughout. In addition, the IC50 was over 20 µM in experiment [4], over 20 µM in experiment [5], over 20 µM in experiment [6] and 0.11 µM in experiment [7].
Take `CCCC(O)CCCCC[C@@H]1C[C@H](O)[C@H](Cc2ccccc2)N1C` (mixture of isomers): the MIC in experiment [1], in experiment [2] and in experiment [3] was over 50 µg/mL each time. Further, the IC50 in experiment [4] is over 20 µM; in experiment [5] it was over 20 µM; in experiment [6], over 20 µM; in experiment [7], 16 µM.
In the case of `CC(O)CCCCC[C@@H]1C[C@H](O)[C@H](Cc2ccccc2)N1C` (mixture of isomers), the MIC in experiment [1], in experiment [2] and in experiment [3] was over 50 µg/mL each time. Besides, the IC50 in experiment [4] was over 20 µM; in experiment [5], over 20 µM; in experiment [6], over 20 µM; in experiment [7] it was 2.3 µM.
